This is an account of results in ChEMBL document CHEMBL1201862, “PubChem BioAssay data set” (2004).

Some test systems named below: DMS-273; DMS-114; LXFL 529; RXF 631; M19-MEL; HOP-18; XF498; SNB-78; KM-20L2.
What all share (test): growth of human tumour cells (NCI), 48 h

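The compound was tested at five concentrations on cells cultured in 96-well plates, with a 48-hour exposure period. Here, GI50 denotes the concentration required for 50% inhibition of growth.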 The source made the active and inactive calls. No stated cut-off is given here; in the data, active = GI50 up to about 1.1 µM and inactive = higher.

Take `Cc1c2cc[n+](C)cc2c(C)c2c1sc1ccccc12`: the GI50 in the assay with DMS-273 was 853 nM (active); with DMS-114, 395 nM (active); with LXFL 529 it was 456 nM (active); in the assay with RXF 631, 194 nM (active); with M19-MEL it was 1100 nM (active); in the assay with HOP-18 it was 9140 nM (inactive). The GI50 in the assay with XF498 was 564 nM (active); in the assay on SNB-78, 855 nM (active); with KM-20L2, 2040 nM (inactive).
